{"source": "patent US9580459B2", "about": "“Water-soluble ursodeoxycholic acid prodrugs” (Metselex, Inc., priority 2013, dated 2017)", "key": {"primary rat hepatocytes [1]": {"system": "primary rat hepatocytes", "assay": "TGFβ1-induced cytotoxicity (LDH release)", "format": "cell-based", "conditions": "100 μM, 12 hours, then 1 nmol/L TGF-β1 24 hours; alkaline phosphatase added for compound 19d; p<0.05", "experimental": "To compare the in vitro cytoprotective effects of the new prodrugs with UDCA, an alcohol-linked phosphate prodrug (the 3-substituted prodrug compound 3) and the POMC prodrug compound 19d were evaluated for their ability to modulate TGFβ1-induced cytotoxicity. […] Therefore, AP was added to the culture medium whenever assessing the cytoprotective potential of compound 19d. The ability of compound 3 and compound 19d to inhibit TGFβ1-induced general cell death, as compared with UDCA were analyzed. […] Results are expressed as means±SEM of at least three different experiments (*p<0.01 from respective control; §p<0.05 from respective TGFβ). […] Similarly as before, UDCA, compound 3 and compound 19d, inhibited TGFβ1-induced cytotoxicity by about 40, 30 and 60%, respectively (p<0.05).\nIn another example, primary rat hepatocytes were isolated from male rats (100-150 g) by collagenase perfusion. Briefly, rats were anesthetized with phenobarbital sodium (100 mg/kg body weight) injected into the peritoneal cavity. […] Cell viability was determined by trypan blue exclusion and was typically 80-85%. […]\nIn another example, LDH, a stable cytosolic enzyme, is released to cell culture media following cell lysis, and can be used as a marker of cytotoxicity. […] Finally, absorbance was measured at 490 nm, with 690 nm as reference, using a Bio-Rad model 680-microplate reader (Bio-Rad Laboratories, Hercules, Calif.)."}, "primary rat hepatocytes [2]": {"system": "primary rat hepatocytes", "assay": "TGFβ1-induced loss of cellular viability (CellTiter-Fluor viability assay)", "format": "cell-based", "conditions": "presence or absence of 3 U/ml alkaline phosphatase; preliminary results"}, "[3]": {"assay": "stability in Tris glycine buffer without enzyme (31P NMR)", "format": "physicochemical", "conditions": "0.100 M Tris glycine buffer with 1.0 mM ZnCl2 and 1.0 mM MgCl2, 1 h, no enzyme", "experimental": "Compound 19d (10.0 mg, 0.016 mmol) or compound 3 (8.7 mg, 0.016 mmol) was dissolved in 0.6 mL of a 0.100 M Tris glycine buffer solution containing 1.0 mM ZnCl2 and 1.0 mM MgCl2. […] 50 μL of the previously prepared AP stock solution was further diluted by addition to 0.950 mL of a 0.100 M Tris glycine buffer containing 1.0 mM ZnCl2 and 1.0 mM MgCl2. […] A series of 42 inverse-gated decoupled ^31P NMR's were taken (24 scans each, approximately one minute acquisition time). Conversion (%) was determined from the relative integration of the starting material and product peaks, NMR time stamps were used to determine time. Each experiment was repeated three times."}, "[4]": {"assay": "aqueous solubility of the prodrugs", "format": "physicochemical", "experimental": "To obtain the 7-substituted phosphate ester prodrug of UDCA, benzyl ester 1 was treated with benzyl chloroformate and pyridine in dichloromethane as shown in FIG. 2. This led to a mixture of products, including 3-Cbz-protected alcohol (41%) (compound 4), 7-Cbz-protected alcohol (10%) (compound 5), and recovered starting material (41%). These products were readily separated by column chromatography, which allowed definitive confirmation of the regiochemistry of the prodrugs by ^1H NMR analysis, as the signal of the proton next to the Cbz-protected alcohol (Ha in FIG. 2) was a dddd in the major mono-substituted product (consistent with compound 4) and a ddd in the minor mono-substituted product (consistent with compound 5). Compound 4 was then converted into a 7-substituted phosphate ester prodrug (compound 7) using dibenzyl N,N-diethylphosphoramidite followed by oxidation with H2O2 and then Pd/C catalyzed debenzylation. Similar standard conditions converted compound 5 into the same 3-substituted phosphate ester prodrug (compound 3) that was obtained in FIG. 1. Both phosphate prodrugs (compound 3 and compound 7) were highly aqueously soluble, rapidly dissolving at all concentrations tested (up to 20 mg/mL), and were stable in solution for extended periods of time (>6 months) without any apparent decomposition. […]"}, "[5]": {"biological_target": "T1, alkaline phosphatase from bovine intestinal mucosa (Bos taurus, UniProt P19111)", "T1 construct": "alkaline phosphatase from bovine intestinal mucosa; purchased Sigma-Aldrich P5521-2KU; host or cells: bovine intestinal mucosa (tissue-derived)", "T1 sequence (P19111 20-506 limits assumed)": "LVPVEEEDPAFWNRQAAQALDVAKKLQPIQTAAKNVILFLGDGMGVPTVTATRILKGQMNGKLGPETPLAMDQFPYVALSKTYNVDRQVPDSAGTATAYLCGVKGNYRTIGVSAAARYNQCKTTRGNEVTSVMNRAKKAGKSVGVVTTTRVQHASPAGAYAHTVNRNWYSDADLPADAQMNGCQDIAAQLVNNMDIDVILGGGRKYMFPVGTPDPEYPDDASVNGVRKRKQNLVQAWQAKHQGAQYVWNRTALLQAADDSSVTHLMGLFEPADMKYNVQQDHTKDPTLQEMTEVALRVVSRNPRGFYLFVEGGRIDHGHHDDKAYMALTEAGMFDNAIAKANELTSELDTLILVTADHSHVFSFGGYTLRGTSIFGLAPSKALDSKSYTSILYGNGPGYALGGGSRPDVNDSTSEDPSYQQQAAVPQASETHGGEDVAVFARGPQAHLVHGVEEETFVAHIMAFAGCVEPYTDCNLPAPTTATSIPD", "assay": "alkaline phosphatase catalyzed activation monitored by inverse-gated decoupled 31P NMR", "format": "biochemical", "conditions": "in vitro, Tris glycine buffer", "experimental": "To determine whether the POMC prodrug was indeed activated under in vitro conditions faster than a prodrug where the phosphate moiety is directly linked to an alcohol, a series of experiments were conducted monitoring the alkaline phosphatase catalyzed activation of the prodrugs compound 19d and compound 3 by inverse-gated decoupled ^31P NMR. […] Each data point represents the mean of three separate experiments±standard error of the mean (SEM).\nIn another example, alkaline phosphatase from bovine intestinal mucosa (P5521-2KU, Sigma-Aldrich, St. Louis, Mo.) was dissolved in 2.0 mL of a 0.100 M […] glycine buffer containing 1.0 mM ZnCl2 and 1.0 mM MgCl2. This stock solution was stored at 4° C. between uses.\nCompound 19d (10.0 mg, 0.016 mmol) or compound 3 (8.7 mg, 0.016 mmol) was dissolved in 0.6 mL of a 0.100 M Tris glycine buffer solution containing 1.0 mM ZnCl2 and 1.0 mM MgCl2. […] 50 μL of the previously prepared AP stock solution was further diluted by addition to 0.950 mL of a 0.100 M Tris glycine buffer containing 1.0 mM ZnCl2 and 1.0 mM MgCl2. 10.0 μL of this diluted AP solution was added to the prodrug solution by syringe. […] Conversion (%) was determined from the relative integration of the starting material and product peaks, NMR time stamps were used to determine time. […]"}}, "data": [{"smiles": "C[C@H](CCC(=O)O)[C@H]1CC[C@H]2[C@@H]3[C@@H](O)C[C@@H]4C[C@H](O)CC[C@]4(C)[C@H]3CC[C@]12C", "note": "[UDCA, Ursodeoxycholic acid]", "values": [{"measurement": "inhibition of TGFβ1-induced cytotoxicity (LDH release)", "setting": "primary rat hepatocytes [1]", "value": "about 40%"}]}, {"smiles": "C[C@H](CCC(=O)O)[C@H]1CC[C@H]2[C@@H]3[C@@H](O)C[C@@H]4C[C@H](OP(=O)([O-])[O-])CC[C@]4(C)[C@H]3CC[C@]12C.[Na+].[Na+]", "note": "[compound 3, 3-(Phosphonatooxy)-ursodeoxycholic acid sodium salt]", "values": [{"measurement": "effect of alkaline phosphatase (AP) in the culture medium on cytoprotective properties", "setting": "primary rat hepatocytes [2]", "value": "does not significantly change"}, {"measurement": "inhibition of TGFβ1-induced cytotoxicity (LDH release)", "setting": "primary rat hepatocytes [1]", "value": "~30", "unit": "%"}, {"measurement": "decomposition by 31P NMR in buffer", "setting": "[3]", "value": "Neither compound showed decomposition"}]}, {"smiles": "C[C@H](CCC(=O)O)[C@H]1CC[C@H]2[C@@H]3[C@@H](OP(=O)([O-])[O-])C[C@@H]4C[C@H](O)CC[C@]4(C)[C@H]3CC[C@]12C.[Na+].[Na+]", "note": "[compound 7, 7-(Phosphonatooxy)-ursodeoxycholic acid sodium salt]", "values": [{"measurement": "aqueous solubility", "setting": "[4]", "value": "≥ 20", "unit": "mg/mL"}]}, {"smiles": "CC(CCC(=O)OCOP(=O)(O)O)C1CCC2C3C(O)CC4CC(O)CCC4(C)C3CCC12C", "note": "(stereo not shown) [compound 19, ursodeoxycholic acid phosphonooxymethoxy ester]", "values": [{"measurement": "rate of release of UDCA by alkaline phosphatase (compared with compound 3)", "setting": "[5]", "value": "faster"}, {"measurement": "effect of alkaline phosphatase (AP) in the culture medium on cytoprotective properties", "setting": "primary rat hepatocytes [2]", "value": "required activation by exogenous alkaline phosphatase"}]}]}
